Laboratory results as given in US20070149535A1, “Protein kinase inhibitors” (ONCALIS AG, priority 2004, published 2007).

Key:
Test in all cases: Yeast growth assay, specificity profiling;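 as to EGFR (L858R) growth restoration: Parenthesized + marks a result obtained in a different yeast background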
Type in all cases: cell-based
Design in all cases: key: “−” indicates no growth restoration i.e. no activity against the particular kinase; “+”, “++”, and “+++” indicate activity detected by restoration of growth, classified into three categories of potency; “+”, “++”, and “+++” indicate activity detected by restoration of growth, classified into three categories of potency; “+”, “++”, and “+++” indicate activity detected by restoration of growth, classified into three categories of potency
Details in all cases: 7 concentrations between 0.2 and 100 μM
EGFR (L858R) = molecular target: T1, EGFR (L858R) (Homo sapiens, UniProt P00533, L858R);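 also: Parenthesized + marks a result obtained in a different yeast background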
T1 construct: expressed in transfected cells; host or cells: yeast
How it was run: (§1)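 Read-out: rescue of yeast growth, scored − (none) to +++ by maximal restoration level and concentration at which it occurs. Galactose induces RTK expression from plasmid, which inhibits growth; glucose pre-culture represses it. 7-point titration, 0.2–100 μM.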

ErbB2 = molecular target: T2, ErbB2 (Homo sapiens, UniProt P04626)
T2 construct: expressed in transfected cells; host or cells: yeast
T2 sequence (P04626 23-1255): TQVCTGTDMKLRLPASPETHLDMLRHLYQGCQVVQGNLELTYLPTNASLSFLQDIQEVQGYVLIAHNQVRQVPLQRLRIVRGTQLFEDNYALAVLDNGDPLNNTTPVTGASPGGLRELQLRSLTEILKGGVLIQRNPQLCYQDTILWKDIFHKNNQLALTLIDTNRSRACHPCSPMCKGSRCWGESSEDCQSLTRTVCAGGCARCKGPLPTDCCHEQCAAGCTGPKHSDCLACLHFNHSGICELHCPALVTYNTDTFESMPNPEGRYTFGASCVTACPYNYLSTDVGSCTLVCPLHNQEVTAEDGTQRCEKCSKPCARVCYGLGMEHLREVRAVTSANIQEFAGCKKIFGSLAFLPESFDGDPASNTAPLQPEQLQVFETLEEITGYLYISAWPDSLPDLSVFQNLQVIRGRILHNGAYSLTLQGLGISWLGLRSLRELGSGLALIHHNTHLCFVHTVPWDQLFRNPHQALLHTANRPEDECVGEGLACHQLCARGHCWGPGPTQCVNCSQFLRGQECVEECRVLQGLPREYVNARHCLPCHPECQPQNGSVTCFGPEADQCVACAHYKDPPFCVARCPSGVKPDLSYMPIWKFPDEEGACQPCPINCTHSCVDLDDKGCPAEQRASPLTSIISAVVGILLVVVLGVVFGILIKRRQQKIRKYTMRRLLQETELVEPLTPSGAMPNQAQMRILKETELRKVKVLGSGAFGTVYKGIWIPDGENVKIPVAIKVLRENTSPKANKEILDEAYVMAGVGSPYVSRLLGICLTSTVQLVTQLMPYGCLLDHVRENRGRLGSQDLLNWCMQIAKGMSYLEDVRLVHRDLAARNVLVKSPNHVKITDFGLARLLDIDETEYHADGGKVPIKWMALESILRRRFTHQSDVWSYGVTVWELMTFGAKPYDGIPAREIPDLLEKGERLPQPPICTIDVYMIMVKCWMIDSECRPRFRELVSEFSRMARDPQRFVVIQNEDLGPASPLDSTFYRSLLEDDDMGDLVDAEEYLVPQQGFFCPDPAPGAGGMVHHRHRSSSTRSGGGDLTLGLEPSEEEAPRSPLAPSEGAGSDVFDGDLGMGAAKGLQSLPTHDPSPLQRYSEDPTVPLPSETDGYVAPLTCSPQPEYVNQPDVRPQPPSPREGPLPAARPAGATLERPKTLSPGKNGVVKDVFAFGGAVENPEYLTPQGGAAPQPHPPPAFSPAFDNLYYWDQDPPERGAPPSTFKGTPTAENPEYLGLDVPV
How it was run: as §1

FGFR-2 = molecular target: T3, FGFR-2 (Homo sapiens, UniProt P21802)
T3 construct: expressed in transfected cells; host or cells: yeast
T3 sequence (P21802 22-821): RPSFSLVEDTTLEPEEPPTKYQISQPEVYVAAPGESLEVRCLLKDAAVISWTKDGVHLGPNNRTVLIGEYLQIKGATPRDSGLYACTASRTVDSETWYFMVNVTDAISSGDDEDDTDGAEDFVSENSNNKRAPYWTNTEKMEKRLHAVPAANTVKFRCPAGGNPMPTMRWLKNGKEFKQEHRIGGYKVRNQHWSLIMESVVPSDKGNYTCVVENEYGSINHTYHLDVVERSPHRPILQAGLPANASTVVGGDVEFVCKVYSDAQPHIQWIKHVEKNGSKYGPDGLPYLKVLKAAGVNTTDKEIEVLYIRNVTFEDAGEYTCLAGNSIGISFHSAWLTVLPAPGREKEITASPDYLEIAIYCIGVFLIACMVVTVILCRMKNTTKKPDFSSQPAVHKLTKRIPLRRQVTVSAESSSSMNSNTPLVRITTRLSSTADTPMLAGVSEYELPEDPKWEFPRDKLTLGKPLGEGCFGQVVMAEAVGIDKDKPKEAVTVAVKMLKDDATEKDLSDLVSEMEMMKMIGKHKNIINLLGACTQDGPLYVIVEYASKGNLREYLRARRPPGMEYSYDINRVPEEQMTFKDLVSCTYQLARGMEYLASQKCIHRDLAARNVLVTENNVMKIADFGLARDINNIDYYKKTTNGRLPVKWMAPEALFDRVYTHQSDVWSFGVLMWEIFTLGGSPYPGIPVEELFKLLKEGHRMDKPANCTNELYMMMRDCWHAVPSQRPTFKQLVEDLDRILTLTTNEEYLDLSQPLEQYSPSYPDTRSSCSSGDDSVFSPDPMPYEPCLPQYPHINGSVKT
How it was run: as §1

PDGFRb = molecular target: T4, PDGFRb (Homo sapiens, UniProt P09619)
T4 construct: expressed in transfected cells; host or cells: yeast
T4 sequence (P09619 33-1106): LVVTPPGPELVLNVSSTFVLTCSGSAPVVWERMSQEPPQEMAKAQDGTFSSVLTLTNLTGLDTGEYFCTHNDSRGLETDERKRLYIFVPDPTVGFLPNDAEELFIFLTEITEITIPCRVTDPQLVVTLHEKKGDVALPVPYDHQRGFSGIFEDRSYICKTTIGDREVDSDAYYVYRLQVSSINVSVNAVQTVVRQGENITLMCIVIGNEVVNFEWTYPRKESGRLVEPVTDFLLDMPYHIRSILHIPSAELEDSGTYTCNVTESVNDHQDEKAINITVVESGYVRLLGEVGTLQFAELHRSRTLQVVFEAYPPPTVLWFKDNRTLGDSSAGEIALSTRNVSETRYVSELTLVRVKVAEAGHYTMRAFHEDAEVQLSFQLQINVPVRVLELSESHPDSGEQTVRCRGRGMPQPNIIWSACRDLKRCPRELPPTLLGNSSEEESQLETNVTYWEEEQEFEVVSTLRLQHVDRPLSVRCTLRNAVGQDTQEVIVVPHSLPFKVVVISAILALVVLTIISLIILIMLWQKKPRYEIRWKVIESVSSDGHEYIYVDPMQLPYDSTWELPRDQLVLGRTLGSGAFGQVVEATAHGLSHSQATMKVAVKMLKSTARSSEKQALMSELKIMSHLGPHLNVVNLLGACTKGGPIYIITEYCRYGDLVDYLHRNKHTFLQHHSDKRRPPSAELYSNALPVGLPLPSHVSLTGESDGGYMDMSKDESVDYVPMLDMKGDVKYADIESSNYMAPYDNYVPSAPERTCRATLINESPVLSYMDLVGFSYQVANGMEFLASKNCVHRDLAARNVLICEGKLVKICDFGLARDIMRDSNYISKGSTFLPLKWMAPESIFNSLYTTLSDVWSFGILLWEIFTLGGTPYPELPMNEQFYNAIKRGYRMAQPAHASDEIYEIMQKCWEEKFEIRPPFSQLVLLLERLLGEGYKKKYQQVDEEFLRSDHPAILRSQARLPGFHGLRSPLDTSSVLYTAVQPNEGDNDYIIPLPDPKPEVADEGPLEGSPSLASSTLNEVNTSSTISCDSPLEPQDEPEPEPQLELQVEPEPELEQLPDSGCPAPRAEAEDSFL
How it was run: as §1

Cc1nccn2c(Nc3cccc(Cl)c3)c(-c3ccccc3)nc12 [compound 3, (3-Chloro-phenyl)-(8-methyl-2-phenyl-imidazo[1,2-a]pyrazin-3-yl)-amine] was tested, and the “EGFR (L858R) growth restoration” value (EGFR (L858R)) was “+”, the ErbB2 growth restoration (ErbB2) was “−” and the FGFR-2 growth restoration (FGFR-2) was “−”. The PDGFRb growth restoration (PDGFRb) was “−”.

In the case of COc1cccc(-c2nc3cnccn3c2Nc2cccc(Cl)c2)c1 [compound 7, (3-Chloro-phenyl)-[2-(3-methoxy-phenyl)-imidazo[1,2-a]pyrazin-3-yl]-amine], the “EGFR (L858R) growth restoration” value (EGFR (L858R)) is reported as “+”, the ErbB2 growth restoration (ErbB2) is reported as “−” and the FGFR-2 growth restoration (FGFR-2) is reported as “−”. For the same molecule, the PDGFRb growth restoration (PDGFRb) was “−”.

In the case of Brc1cccc(Nc2c(-c3ccccc3)nc3cnccn23)c1 [compound 14, (3-Bromo-phenyl)-(2-phenyl-imidazo[1,2-a]pyrazin-3-yl)-amine], the “EGFR (L858R) growth restoration” value (EGFR (L858R)) is reported as “−”, the ErbB2 growth restoration (ErbB2) is reported as “−” and the FGFR-2 growth restoration (FGFR-2) is reported as “−”. The PDGFRb growth restoration (PDGFRb) was “−”.

Clc1ccc(Nc2c(-c3ccccc3)nc3cnccn23)cc1 [compound 16, (4-Chloro-phenyl)-(2-phenyl-imidazo[1,2-a]pyrazin-3-yl)-amine] was tested, and the “EGFR (L858R) growth restoration” value (EGFR (L858R)) was “−”, the ErbB2 growth restoration (ErbB2) was “−” and the FGFR-2 growth restoration (FGFR-2) was “−”. For the same molecule, the PDGFRb growth restoration (PDGFRb) was “−”.

c1ccc(Nc2c(-c3ccccc3)nc3cnccn23)cc1 [compound 23, Phenyl-(2-phenyl-imidazo[1,2-a]pyrazin-3-yl)-amine] was tested, and the “EGFR (L858R) growth restoration” value (EGFR (L858R)) was “+”, the ErbB2 growth restoration (ErbB2) was “−” and the FGFR-2 growth restoration (FGFR-2) was “−”. For the same molecule, the PDGFRb growth restoration (PDGFRb) was “−”.

In the case of Cc1cccc(Nc2c(-c3ccccc3)nc3cnccn23)c1 [compound 34, (2-Phenyl-imidazo[1,2-a]pyrazin-3-yl)-m-tolyl-amine], the “EGFR (L858R) growth restoration” value (EGFR (L858R)) is reported as “−”, the ErbB2 growth restoration (ErbB2) is reported as “−” and the FGFR-2 growth restoration (FGFR-2) is reported as “−”. For the same molecule, the PDGFRb growth restoration (PDGFRb) was “−”.

For Clc1cccc(Nc2c(-c3ccccc3)nc3cnccn23)c1 [compound 35, (3-Chloro-phenyl)-(2-phenyl-imidazo[1,2-a]pyrazin-3-yl)-amine], the “EGFR (L858R) growth restoration” value (EGFR (L858R)) was “+”, the ErbB2 growth restoration (ErbB2) was “−” and the FGFR-2 growth restoration (FGFR-2) was “−”. For the same molecule, the PDGFRb growth restoration (PDGFRb) was “−”.

In the case of Cc1nccn2c(Nc3ccccc3)c(-c3ccccc3)nc12 [compound 39, (8-Methyl-2-phenyl-imidazo[1,2-a]pyrazin-3-yl)-phenyl-amine], the “EGFR (L858R) growth restoration” value (EGFR (L858R)) is reported as “+”, the ErbB2 growth restoration (ErbB2) is reported as “−” and the FGFR-2 growth restoration (FGFR-2) is reported as “−”. For the same molecule, the PDGFRb growth restoration (PDGFRb) was “−”.

For Cc1cccc(Nc2c(-c3ccccc3)nc3c(C)nccn23)c1 [compound 43, (8-Methyl-2-phenyl-imidazo[1,2-a]pyrazin-3-yl)-m-tolyl-amine], the “EGFR (L858R) growth restoration” value (EGFR (L858R)) was “−”, the ErbB2 growth restoration (ErbB2) was “−” and the FGFR-2 growth restoration (FGFR-2) was “−”. The PDGFRb growth restoration (PDGFRb) was “−”.

With Cc1nccn2c(Nc3cccc(F)c3)c(-c3ccccc3)nc12 [compound 44, (3-Fluoro-phenyl)-(8-methyl-2-phenyl-imidazo[1,2-a]pyrazin-3-yl)-amine] the “EGFR (L858R) growth restoration” value (EGFR (L858R)) was “+”, the ErbB2 growth restoration (ErbB2) was “−” and the FGFR-2 growth restoration (FGFR-2) was “−”. For the same molecule, the PDGFRb growth restoration (PDGFRb) was “−”.

In the case of Cc1nccn2c(Nc3ccc(F)c(F)c3)c(-c3ccccc3)nc12 [compound 45, (3,4-Difluoro-phenyl)-(8-methyl-2-phenyl-imidazo[1,2-a]pyrazin-3-yl)-amine], the “EGFR (L858R) growth restoration” value (EGFR (L858R)) is reported as “−”, the ErbB2 growth restoration (ErbB2) is reported as “−” and the FGFR-2 growth restoration (FGFR-2) is reported as “−”. The PDGFRb growth restoration (PDGFRb) was “−”.
